The values that follow come from US10071112B2, “Vitamin E-nucleoside prodrugs” (EPIGENETICS PHARMA LLC, priority 2014, dated 2018).

Structures can show the parent of a compound that is named as a salt. Where two headings read alike, the source gives them in different places.

In general, IC50 refers to the concentration needed to halve the response being measured. As a reminder, the GI50 is the concentration giving 50% growth inhibition. One may read the solubility as the dissolved amount per volume that the medium holds.

The conditions of data set [1]: blank human plasma matrix, room temperature, at least 4 hours; cited from earlier work.
For a further data set, the system named is HCT-116. Briefly: In vitro cytotoxicity / growth inhibition, SRB assay, 72 hr, colon cancer cells. The class given is cell-based. The settings on record: for IC50: Table 2, HCT-116; for GI50: 72 hr. Here is the method:
(§1) In general, growth inhibitory effects of gemcitabine and prodrugs were evaluated in breast (MDA), lung (H460) and colon (H116) cancer cell lines by seeding the cell lines in 96-wells plates and exposing the cells to various drug concentrations for 72 hr. Standard sulforhodamine B (SRB) assay was then performed.

The test system of a further data set is NCI-H460. Nature of the data set: In vitro cytotoxicity / growth inhibition, SRB assay, 72 hr, non-small cell lung cancer cells. The class given is cell-based. The settings on record: for IC50: Table 2; for GI50: 72 hr. Here is the method:
as §1
Background: Sulforhodamine B stains cellular protein and so reports cell mass.

The subject of the next data set is MDA-MB-231. Nature of the data set: In vitro cytotoxicity / growth inhibition, SRB assay, 72 hr, breast cancer cells. The class given is cell-based. The settings on record: for IC50: Table 2; for GI50: 72 hr. The protocol: as §1
Another data set concerns CEM dCK(—). Briefly: Activity in CEM cells without deoxycytidine kinase. The class given is cell-based. The settings on record: for increase of IC50 from dCK WT cells to dCK (−) cells: CEM dCK(−) vs CEM WT; for IC50: Homo sapiens, CCRF-CEM, CEM dCK(—) cells. The protocol:
(§2) To further confirm that tocopherol/tocotrienol-modified drugs are imported as intact molecules and then dissociate intracellularly into monophosphorylated nucleoside and carrier, i.e., tocopherol/tocotrienol, Compound 2 was tested for activity against gemcitabine in wild type (WT) leukemic CEM cells and CEM cells without deoxycytidine kinase (dCK). In the absence of dCK, gemcitabine is not phosphorylated to gemcitabine monophosphate a precursor to the therapeutically active di- and triphosphates.

Another data set concerns CEM WT. Briefly: Activity in wild type leukemic CEM cells. The class given is cell-based. The settings on record: for IC50: Homo sapiens, CCRF-CEM, CEM WT (dCK wild type) cells. The protocol:
as §2

Data set [2] is described as follows: Intrinsic clearance / metabolic stability in liver microsomes. The class given is in vitro ADME. The conditions noted are these: human liver microsomes. The protocol: Metabolic stability, expressed as percent of the parent compound remaining, was calculated by comparing the peak area of the compound at the time point relative to that at time-0. The half-life (T1/2) was estimated from the slope of the initial linear range of the logarithmic curve of compound remaining (%) vs. time, assuming the first-order kinetics. The apparent intrinsic clearance (CLint, in μL/min/pmol, μL/min/mg or μL/min/Mcell) was calculated according to the following formula: CLint=[…](mg protein/μL or million cells/μL or pmol CYP isozyme/μL)
On the technique in general: Liver microsomes are vesicles of endoplasmic reticulum, rich in cytochrome P450 enzymes.

A short description of data set [3]: Aqueous solubility determination. The class given is physicochemical. From the text: In addition, chromatographic purity (%) was defined as the peak area of the principal peak relative to the total integrated peak area in the HPLC chromatogram of the calibration standard. A chromatogram of the calibration standard of each test compound, along with a UV/VIS spectrum with labeled absorbance maxima, was generated.

The next data set relates to pancreatic cancer. The conditions noted are these: clinical trials, patients with pancreatic cancer; cited from earlier work.
Setting [4] is: Homo sapiens, absence of dipyridamole (control), read-out: GI50 SRB, H116 Colon.
The mark [5] stands for this setting: Homo sapiens, presence of 1 μM dipyridamole, read-out: GI50 SRB, H116 Colon, dipyridamole.
The mark [6] stands for this setting: Homo sapiens, NCI-H460, absence of dipyridamole (control), read-out: GI50 SRB, H460 Lung.
[7] abbreviates: Homo sapiens, NCI-H460, presence of 1 μM dipyridamole, read-out: GI50 SRB, H460 Lung, dipyridamole.
Where [8] appears, read: Homo sapiens, MDA-MB-231, absence of dipyridamole (control), read-out: GI50 SRB, MDA Breast.
[9] abbreviates: Homo sapiens, MDA-MB-231, presence of 1 μM dipyridamole, read-out: GI50 SRB, MDA Breast, dipyridamole.

Turning to `CCCCCCCC/C=C/CCCCCCCC(=O)OC[C@H]1O[C@@H](n2cnc(N)nc2=O)[C@H](O)[C@@H]1O` [5-azacytidine elaidic acid ester], in data set [1], the “percent of the initial amount remaining” value was 94%.
With `Cc1c(C)c2c(c(C)c1OP(=O)(O)OC[C@H]1O[C@@H](n3ccc(N)nc3=O)C(F)(F)[C@@H]1O)CC[C@@](C)(CCC[C@H](C)CCC[C@H](C)CCCC(C)C)O2` [Compound 1, D-α-tocopheryl phosphate-5′-gemcitabine, triethylammonium salt], the half-inhibitory concentration (IC50) came out at 26.1 µM in the data set with HCT-116 (Homo sapiens); 23.8 µM with NCI-H460 (Homo sapiens, NCI-H460); 22.7 µM in the data set on MDA-MB-231 (Homo sapiens, MDA-MB-231).
With `Cc1cc(OP(=O)(O)OC[C@H]2O[C@@H](n3ccc(N)nc3=O)C(F)(F)C2O)cc2c1O[C@](C)(CCC[C@H](C)CCC[C@H](C)CCCC(C)C)CC2` (stereo partly drawn) [Compound 2, D-δ-tocopheryl phosphate-5′-gemcitabine, triethylammonium salt], the “increase of IC50 from dCK WT cells to dCK (−) cells” value in the data set with CEM dCK(—) stood at 32.5 fold. Further, the IC50 with CEM dCK(—) stood at 19.2 µM; in the data set on HCT-116 (Homo sapiens), 3.67 µM; with CEM WT it was 0.59 µM; in the data set with NCI-H460 (Homo sapiens, NCI-H460) it was 1.69 µM; in the data set on MDA-MB-231 (Homo sapiens, MDA-MB-231), 5.08 µM. Further, in the data set on CEM dCK(—) (dCK (−) cells), the “fold by which IC50 of Compound 2 was lower than gemcitabine” value came to 6.5 fold. Moreover, the GI50 stood at 3.07 µM in the data set with HCT-116 (setting [4]); 6.74 µM in the data set with HCT-116 (setting [5]); 2.14 µM in the data set with NCI-H460 (setting [6]); 1.47 µM in the data set with NCI-H460 (setting [7]); 17.2 µM in the data set with MDA-MB-231 (setting [8]); 23.3 µM in the data set on MDA-MB-231 (setting [9]). The intrinsic clearance half-life entry in data set [2] is “greater than 60 minutes”. Also, the solubility is greater than 10000 µg/mL in data set [3] (PBS buffer, aqueous buffer, PBS (pH 7.4), read-out: aqueous solubility in PBS) and greater than 200 µM in data set [3] (simulated intestinal fluid, fassgf or other biorelevant, read-out: aqueous solubility in simulated intestinal fluid).
Take `CC(C)=CCC/C(C)=C/CC/C(C)=C/CCC1(C)CCc2cc(OP(=O)(O)OC[C@H]3O[C@@H](n4ccc(N)nc4=O)C(F)(F)[C@@H]3O)c(C)c(C)c2O1` (stereo partly drawn) [Compound 3, D-γ-tocotrienyl phosphate-5′-gemcitabine, triethylammonium salt]: the IC50 with HCT-116 amounted to 4.01 µM; with NCI-H460 (NCI-H460) it was 4.75 µM; in the data set on MDA-MB-231 (MDA-MB-231), 4.9 µM. For the same compound, the GI50 in the data set on HCT-116 (absence of dipyridamole (control), read-out: GI50 SRB, H116 Colon) turned out to be 5.55 µM; in the data set on HCT-116 (presence of 1 μM dipyridamole, read-out: GI50 SRB, H116 Colon, dipyridamole) it was 12.6 µM; in the data set on NCI-H460 (absence of dipyridamole (control), read-out: GI50 SRB, H460 Lung) it was 7.16 µM; with NCI-H460 (presence of 1 μM dipyridamole, read-out: GI50 SRB, H460 Lung, dipyridamole), 16 µM; in the data set on MDA-MB-231 (absence of dipyridamole (control), read-out: GI50 SRB, MDA Breast) it was 30.3 µM; in the data set with MDA-MB-231 (presence of 1 μM dipyridamole, read-out: GI50 SRB, MDA Breast, dipyridamole) it was 27.8 µM.
As to `Nc1ccn([C@@H]2O[C@H](CO)[C@@H](O)C2(F)F)c(=O)n1` [Gemcitabine, reference compound], in the data set with CEM dCK(—), the “increase of IC50 from dCK WT cells to dCK (−) cells” value is reported as 62,250 fold. The half-maximal inhibitory concentration (IC50) in the data set on CEM dCK(—) was found to be 124 µM; with HCT-116 (Homo sapiens), 0.01 µM; with CEM WT, 0.002 µM; in the data set on NCI-H460 (Homo sapiens, NCI-H460), 0.02 µM; in the data set on MDA-MB-231 (Homo sapiens, MDA-MB-231), 0.11 µM. Also, the GI50 was 0.03 µM in the data set with HCT-116 (setting [4]); 2.39 µM in the data set on HCT-116 (setting [5]); 0.02 µM with NCI-H460 (setting [6]); 0.82 µM in the data set with NCI-H460 (setting [7]); 3.08 µM with MDA-MB-231 (setting [8]); 56.8 µM with MDA-MB-231 (setting [9]). For the same compound, the “fold by which IC50 of gemcitabine was lower than Compound 2” value in the data set with CEM WT (dCK WT cells) is recorded as 295 fold.
Regarding `CCCCCCCC/C=C/CCCCCCCC(=O)OC[C@H]1O[C@@H](n2ccc(N)nc2=O)C(F)(F)[C@@H]1O` [elaidic acid prodrug], the survival versus gemcitabine entry in the data set on pancreatic cancer was “did not show any difference in survival”.
On to `CC(C)=CCC/C(C)=C/CC/C(C)=C/CCC1(C)CCc2cc(OP(=O)(O)O)c(C)c(C)c2O1` (stereo not shown) [γ-tocotrienyl phosphate, reference compound], for which the IC50 with HCT-116 came out at 55.7 µM; in the data set on NCI-H460 (NCI-H460) it was 69.1 µM; in the data set with MDA-MB-231 (MDA-MB-231), 26.4 µM.
For “α-tocopheryl phosphate [reference compound]” the same measures were 46.9 µM, 52.2 µM and 23.4 µM.
For “δ-tocopheryl phosphate [reference compound]” the same measures were 70.6 µM, 69.7 µM and 29.6 µM.
